Results: patent publication US20070043109A1, “Slimming cosmetic composition” (Sederma Sas, priority 2003, published 2007)

Columns and labels:
VLDL receptor = assay: RT-PCR quantification of VLDL receptor mRNA expression in 3T3-L1 neo-adipocytes; type: cell-based
Description: (§1) To evidence regulation of transcription (control of the number of copies of the messenger RNA for the gene coding for the protein studied), it was necessary to isolate the messenger RNA (mRNA) synthesized from the cell culture. The mRNA specific for the protein of interest must be recognized in the total mRNA pool present in the cell.
(§2) The used method is RT-PCR, of amplification and quantization, conducted in real time on the latest-generation systems and which enables in-line quantitative measurement of the target mRNA.
(§3) Neo-adipocytes 3T3-L1 in the adipocytic differentiation phase (after addition of an appropriate triggering cocktail) were incubated with cafestol acetate for 24 hours.
(§4) At the end of the test, the adipocytes were lysed and the extracted mRNA transcribed to cDNA (by reverse transcriptase). The cDNA were then amplified (n copies using Taq polymerase) to obtain a detectable signal.
(§5) The amplicons (cDNA amplification products) were quantified directly, as they emerged in the RT-PCR system, then subjected to electrophoresis in order to visually illustrate the results.

LDL receptor = assay: RT-PCR quantification of LDL receptor mRNA expression in 3T3-L1 neo-adipocytes; type: cell-based; settings: 24 hours
Description: as §1, §2, §3, §4, §5

CC(=O)OC[C@@]1(O)C[C@@]23CC[C@@H]4c5ccoc5CC[C@@]4(C)[C@@H]2CC[C@@H]1C3 [Cafestol Acetate, cafestol acetate]
mRNA expression VLDL receptor, standardized on internal standard β-actin, percentage relative to the control (VLDL receptor; cafestol acetate 15 ppm, 24 hours, 3T3-L1 neo-adipocytes in differentiation phase, mean of n = 3 tests, control = 100): 90%
Reduction of the VLDLr (mRNA expression) (VLDL receptor; in 24 hours): 10%
Change in LDL receptor mRNA expression relative to control (LDL receptor; equivalent to that of the positive control): −33%
mRNA expression LDL receptor, standardized on internal standard β-actin, percentage relative to the control (LDL receptor; cafestol acetate 15 ppm, 3T3-L1 neo-adipocytes in differentiation phase, mean of n = 3 tests, control = 100): 66%
